Data on ten compounds can be found in patent US8476454B2, “IDO inhibitors and methods of use” (Lankenau Institute for Medical Research, priority 2003, dated 2013).

pEC50, pKi: −log10 of the molar value.

Series [1] deals with allogenic conceptus. Kind of series: allogeneic conceptus rejection in mice. In kind it is in vivo, mouse. Conditions: 20 mg/day from two time-release pellets; unpublished results. The method, then: The time-release pellets are composed of a copolymer which is inert and gradually dissolves and breaks down to a non-toxic substance that remains largely localized during the course of the experiment. […] Two pellets per mouse were implanted to deliver a total dose of 20 mg/day. Therefore, for a 25 g mouse the total dose is 800 mg/kg/day or 280 mg over a 14 day period. Steady-state levels were reached within 12-24 hours and are maintained throughout the entire period based on the manufacturer's specifications.

Series [2] deals with tumor growth in a mouse model. The note with it: Friberg et al. 2002; U.S. Pat. No. 6,482,416; cited from earlier work.
The conditions of series [3]: time-release pellets, manufacturer's specifications; cited from earlier work.
Series [4] is described as follows: HPLC analysis of mouse serum for compound level. Format: in vivo. The note with it: 2×140 mg 1MT pellets implanted subcutaneously, 3 days, male FVB mice. From the text: Protein was removed by TCA precipitation.
Series [5] deals with IDO. The note with it: cited from earlier work; for potency ranking as IDO inhibitor (literature): Peterson et al. 1993, 1994.
Series [6] deals with T1, intracellular IDO (Homo sapiens, UniProt P14902).
T1 construct: expressed in transfected cells; host or cells: COS-1 cells, CMV promoter-driven plasmid, Lipofectamine 2000
T1 sequence (P14902 whole entry): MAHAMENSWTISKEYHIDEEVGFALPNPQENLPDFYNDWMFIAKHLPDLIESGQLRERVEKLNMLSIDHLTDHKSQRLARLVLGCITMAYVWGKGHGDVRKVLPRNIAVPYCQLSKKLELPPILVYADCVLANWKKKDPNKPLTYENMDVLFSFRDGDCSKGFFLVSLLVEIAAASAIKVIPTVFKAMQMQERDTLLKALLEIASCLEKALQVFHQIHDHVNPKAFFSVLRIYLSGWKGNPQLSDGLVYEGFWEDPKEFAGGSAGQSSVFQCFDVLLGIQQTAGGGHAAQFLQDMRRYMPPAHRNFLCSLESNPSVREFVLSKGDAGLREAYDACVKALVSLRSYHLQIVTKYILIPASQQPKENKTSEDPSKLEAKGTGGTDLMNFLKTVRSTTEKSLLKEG
Kind of series: cell-based IDO inhibitor assay, COS-1 cells transiently transfected with IDO cDNA, dose escalation.
Method: COS-1 cells are transiently transfected with a CMV promoter-driven plasmid expressing IDO cDNA using Lipofectamine 2000 (Invitrogen) as recommended by the manufacturer. […] The following day the wells are washed and new media (phenol red free) containing 20 μg/ml tryptophan is added together with inhibitor.

Series [7] concerns the target T2, tryptophan 2,3-dioxygenase (TDO2) (Homo sapiens, UniProt P48775).
T2 construct: expressed in transfected cells; host or cells: human 293/Phoenix cells
Kind of series: cell-based screen, 293/Phoenix cells transiently transfected with TDO (selectivity). The note with it: IDO versus TDO2. The method, then: FIGS. 27A-27C provide a chart of certain IDO inhibitors, their structures, and their ability to inhibit IDO and TDO activity at a concentration of 250 μM in a cell-based assay.
The candidate compounds were also screened in a cell-based assay (for similar assay see Munn et al. (1999) J. Exp. Med. 189:1363-1372). Briefly, human 293/Phoenix cells were transiently transfected with human IDO or TDO cDNA expression vectors. The candidate compounds were added to the transfected cells at various concentrations. Kynurenine was quantitated in tissue culture media using a fluorescence-based protocol.

In series [8] the target is T3, human IDO (Homo sapiens, UniProt P14902). Kind of series: cell-based screen, 293/Phoenix cells transiently transfected with human IDO, kynurenine in media.
T3 sequence (P14902 whole entry): as above
For series [9], the target named is T3, human IDO. Kind of series: IDO enzyme assay (kynurenine production), enzyme kinetics for Ki. Format: biochemical.
Method: Data were plotted and analyzed using the Prism4 software package (GraphPad).
This assay is also used to determine Ki values for specific compounds, which is important for the development of SAR (structure activity relationship) around the different compound series.
Kynurenine production can be measured at 1 hour. More extensive enzyme kinetic data can be collected for selected compounds of interest.
Series [10] concerns established tumors in MMTVneu "oncomouse" model. Kind of series: MMTVneu transgenic oncomouse model of breast cancer, change in tumor volume over two weeks. The note with it: for effect on tumor growth: two week course, 1MT 20 mg/day s.c. time-release pellets, cytotoxics i.v. at maximum-tolerated doses. In kind it is in vivo, mouse. From the text: The MMTVneu transgenic “oncomouse” model of breast cancer was used to measure the effects of IDO inhibitors and STIs on tumor pathophysiology. The MMTVneu transgenic mouse develops aggressive tumors of the mammary gland that resemble poorly differentiated human ductal carcinomas. In the MMTVneu mouse model, breast cancer is initiated by tissue-specific expression of a mutant form of the HER-2/Neu gene that is activated frequently in aggressive human breast ductal carcinomas. HER-2 is a member of the EGF-R family of cell surface growth factor receptors. Myc is an obligate downstream effector for HER-2/Neu to drive cancer. Female MMTVneu “oncomice” are mated twice to initiate expression from the mouse mammary tumor virus (wry) promoter which drives transcription of the Neu/HER2 oncogene in mammary tissue. Mammary tumors arise with a penetrance of >90% in this model system by 5 months of age. MMTVneu “oncomice” bearing similarly sized tumors of ˜150 mm^3 were randomly assigned to control or experimental treatment groups. Control mice were implanted with placebo time-release pellets (Innovative Research, Inc., Sarasota, Fla.).
The time-release pellets are composed of a copolymer which is inert and gradually dissolves and breaks down to a non-toxic substance that remains largely localized during the course of the experiment. […] Two pellets per mouse were implanted to deliver a total dose of 20 mg/day. Therefore, for a 25 g mouse the total dose is 800 mg/kg/day or 280 mg over a 14 day period.
Time-release pellets were introduced subcutaneously on the backs of mice anesthetized by intramuscular injection of ketamin/rompun. Blunt dissection with a hemostat is used to separate the skin from the underlying muscle to create a subcutaneous pocket. One or two biodegradable slow release pellets were implanted within this pocket, rather than directly under the incision in order to prevent mechanical stress and wound dehiscence. The incision was then closed with wound clips.
MMTVneu “oncomice” bearing similarly sized tumors of ˜150 mm^3 were randomly assigned to control or experimental treatment groups. Control mice were implanted with placebo time-release pellets (Innovative Research, Inc., Sarasota, Fla.).
The cytotoxic chemotherapeutic agents were prepared and delivered to the mice as follows. Paclitaxel was dissolved in equal volumes of absolute ethanol and the clinically-used solubilizing agent Cremophor® EL. The solution was sonicated up to 30 minutes and stored as a 20 mg/ml stock solution at 4° C. for up to one week. Before use, this solution was diluted further at 1:5 with sterile physiological saline. Paclitaxel formulated in this manner was administered to mice by a single bolus intravenous (i.v.) injection into the tail vein. Mouse tails can be warmed to facilitate identification and injection of the vein. […] The MTD of cisplatin (1 mg/kg) was obtained as a clinical preparation in saline and delivered as a bolus i.v. injection on the same schedule. Control treated mice received only the Cremophor° EL vehicle formulation without paclitaxel.
Statistical analysis of the tumors of MMTVneu mice after various treatments. Numbers are provided as percent change in tumor volume as compared to the tumor volume prior to treatment.

Where [11] appears, read: compared to the tumor volume prior to treatment, two weeks.

T2 sequence (P48775 whole entry): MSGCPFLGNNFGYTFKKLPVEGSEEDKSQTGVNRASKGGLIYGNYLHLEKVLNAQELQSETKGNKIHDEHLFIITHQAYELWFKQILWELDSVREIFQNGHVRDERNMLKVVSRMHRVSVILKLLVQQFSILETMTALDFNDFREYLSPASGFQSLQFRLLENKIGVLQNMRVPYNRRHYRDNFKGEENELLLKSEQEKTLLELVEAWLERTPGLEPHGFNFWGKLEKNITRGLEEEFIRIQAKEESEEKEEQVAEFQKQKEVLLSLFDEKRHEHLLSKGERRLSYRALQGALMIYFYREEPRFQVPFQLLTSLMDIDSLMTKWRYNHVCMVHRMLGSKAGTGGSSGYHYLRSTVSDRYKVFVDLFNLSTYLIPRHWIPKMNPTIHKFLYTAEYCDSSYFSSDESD

`Cn1cc(CC(N)C(=O)O)c2ccccc21` (racemic) [1MT, 1-methyl-DL-tryptophan]: the allogenic conceptus rejection result in series [1] was “effective at eliciting allogenic conceptus rejection”. The “effect on tumor growth (literature)” value in [2] is “only retarded and did not prevent tumor growth”. Besides, in [3], the “time to steady-state levels” value is 12 to 24 h. In addition, in series [4], the “1MT level in serum” value was roughly 100 µM.
As for `Nc1cc2ccccc2cc1C(=O)O` [3-amino-2-naphthoic acid], the “potency ranking as IDO inhibitor (literature)” value in [5] is listed as “most potent IDO inhibitor”.
By pEC50 is commonly meant the negative decadic logarithm of the EC50, by convention in mol/L. High values mean a small EC50, low ones a large EC50. A word on the pKi: it is the negative decadic logarithm of the Ki, by convention in mol/L. `CN1C(=O)C(Cc2c[nH]c3ccccc23)NC1=S` (centres unmarked) [MTH-Trp, 3-(N-methyl-thiohydantoin)-indole] showed a pEC50 in [6] (COS-1 cells expressing IDO, 5 hours, 20 μg/ml tryptophan) of 4.89. In addition, in series [6] (compared with 1MT), the “potency against intracellular IDO relative to 1MT” value is recorded as roughly 20 fold. For the same compound, the “selectivity over tryptophan 2,3-dioxygenase (TDO2)” value in series [7] was “significant selectivity”. For the same compound, the “inhibition of IDO activity relative to 1MT” value in series [8] (at a concentration of 250 μM, compared with 1MT) is recorded as 2.7 times. Moreover, the “potency ranking among screened compounds” value in [8] (cell-based screen) is reported as “most potent of these inhibitors”. For the same compound, in series [9] (compared with 1MT), the “potency of direct IDO enzyme inhibition relative to 1MT” value is “about 3 fold”. For the same compound, the pKi in series [9] (human IDO, global nonlinear regression of enzyme kinetic data, read-out: Best fit values of Ki) was 4.94.
With `O=C1C(Cc2c[nH]c3ccccc23)NC(=S)N1c1ccccc1` (centres unmarked) [N-phenyl, 3-(N-phenyl-thiohydantoin)-indole], the “selectivity over tryptophan 2,3-dioxygenase (TDO2)” value in series [7] was “significant selectivity”.
Still for that read-out and setting: under `C=CCN1C(=O)C(Cc2c[nH]c3ccccc23)NC1=S` (centres unmarked) [N-allyl, 3-(N-allyl-thiohydantoin)-indole] stands “significant selectivity”.
Take `CC(=O)O[C@H]1C(=O)[C@@]2(C)[C@H]([C@H](OC(=O)c3ccccc3)[C@]3(O)C[C@H](OC(=O)[C@H](O)[C@@H](NC(=O)c4ccccc4)c4ccccc4)C(C)=C1C3(C)C)[C@]1(OC(C)=O)CO[C@@H]1C[C@@H]2O` [paclitaxel]: in series [10] (setting [11]), the “25% Percentile percent change in tumor volume” value is 40.25%, the “75% Percentile percent change in tumor volume” value turned out to be 247.6%, the “Maximum percent change in tumor volume” value is 360.8% and the “Mean percent change in tumor volume” value turned out to be 139.4%. Besides, in series [10] (setting [11]), the “Median percent change in tumor volume” value came out at 130.4% and the “Minimum percent change in tumor volume” value is 20%. In addition, the “effect on tumor growth” value in series [10] is recorded as “retarded but did not block tumor growth”.
For the compound `c1ccc2c(c1)[nH]c1sncc12` [brassilexin], in [5] (Peterson et al. 1993), the “mode of IDO inhibition (literature)” value is given as “noncompetitive inhibitor of IDO”.
In the case of `CCCCc1cc2c(cn1)[nH]c1ccccc12` [3-butyl-β-carboline], the “potency ranking as IDO inhibitor (literature)” value in series [5] is given as “most active derivative”.
For the compound `N.N.[Cl][Pt][Cl]` [cisplatin], in series [10] (setting [11]), the “Maximum percent change in tumor volume” value is listed as 255.6%, the “Mean percent change in tumor volume” value amounted to 91.35%, the “Median percent change in tumor volume” value was determined as 40% and the “Minimum percent change in tumor volume” value is recorded as −26.53%. The “effect on tumor growth” value in [10] is reported as “retarded but did not block tumor growth”.
For `CC[C@H](C)[C@@H](CO[C@@H](Cc1ccccc1)C(=O)N[C@@H](CCS(C)(=O)=O)C(=O)OC(C)C)NC[C@@H](N)CS` [L-744,832], the “effect on tumor growth” value in series [10] is recorded as “retarded but did not block tumor growth”.
